Where a SMILES comes first, the peptide text is derived from it.

Experiment [1] has as its target T1, Prothrombin (Homo sapiens, UniProt P00734). Kind of experiment: (§1) Compound was evaluated for the inhibition of thrombin.
Experiment [2] has as its target Integrin alpha-IIb/beta-3 (Homo sapiens, UniProt P05106+P08514). Kind of experiment: Compound was evaluated for inhibition against Fibrinogen Receptor. In kind it is protein-complex assay.
Experiment [3] addresses T1, Prothrombin. Described as §1. The source holds these as a separate data set.

Sequence of Integrin alpha-IIb/beta-3 (P05106 27-788 limits assumed): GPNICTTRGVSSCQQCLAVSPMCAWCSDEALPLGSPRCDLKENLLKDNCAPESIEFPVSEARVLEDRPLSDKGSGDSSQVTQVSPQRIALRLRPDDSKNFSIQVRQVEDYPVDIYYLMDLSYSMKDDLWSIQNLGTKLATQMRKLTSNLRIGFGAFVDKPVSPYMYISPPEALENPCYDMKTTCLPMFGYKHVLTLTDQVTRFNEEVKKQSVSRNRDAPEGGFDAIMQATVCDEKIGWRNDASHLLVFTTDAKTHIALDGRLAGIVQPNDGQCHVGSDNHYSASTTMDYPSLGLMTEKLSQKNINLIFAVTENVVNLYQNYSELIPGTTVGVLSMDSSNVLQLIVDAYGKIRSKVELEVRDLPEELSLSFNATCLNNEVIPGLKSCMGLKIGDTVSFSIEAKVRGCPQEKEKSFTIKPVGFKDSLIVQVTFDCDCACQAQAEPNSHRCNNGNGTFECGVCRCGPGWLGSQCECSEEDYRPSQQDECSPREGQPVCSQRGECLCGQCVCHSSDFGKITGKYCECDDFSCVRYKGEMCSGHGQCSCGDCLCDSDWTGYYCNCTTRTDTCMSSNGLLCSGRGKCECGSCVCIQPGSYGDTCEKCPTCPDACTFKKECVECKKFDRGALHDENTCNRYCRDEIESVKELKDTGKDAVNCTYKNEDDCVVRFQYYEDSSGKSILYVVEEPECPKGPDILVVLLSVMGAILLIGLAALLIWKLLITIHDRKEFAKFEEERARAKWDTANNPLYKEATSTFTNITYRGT
Sequence of Integrin alpha-IIb/beta-3 (P08514 32-887 limits assumed): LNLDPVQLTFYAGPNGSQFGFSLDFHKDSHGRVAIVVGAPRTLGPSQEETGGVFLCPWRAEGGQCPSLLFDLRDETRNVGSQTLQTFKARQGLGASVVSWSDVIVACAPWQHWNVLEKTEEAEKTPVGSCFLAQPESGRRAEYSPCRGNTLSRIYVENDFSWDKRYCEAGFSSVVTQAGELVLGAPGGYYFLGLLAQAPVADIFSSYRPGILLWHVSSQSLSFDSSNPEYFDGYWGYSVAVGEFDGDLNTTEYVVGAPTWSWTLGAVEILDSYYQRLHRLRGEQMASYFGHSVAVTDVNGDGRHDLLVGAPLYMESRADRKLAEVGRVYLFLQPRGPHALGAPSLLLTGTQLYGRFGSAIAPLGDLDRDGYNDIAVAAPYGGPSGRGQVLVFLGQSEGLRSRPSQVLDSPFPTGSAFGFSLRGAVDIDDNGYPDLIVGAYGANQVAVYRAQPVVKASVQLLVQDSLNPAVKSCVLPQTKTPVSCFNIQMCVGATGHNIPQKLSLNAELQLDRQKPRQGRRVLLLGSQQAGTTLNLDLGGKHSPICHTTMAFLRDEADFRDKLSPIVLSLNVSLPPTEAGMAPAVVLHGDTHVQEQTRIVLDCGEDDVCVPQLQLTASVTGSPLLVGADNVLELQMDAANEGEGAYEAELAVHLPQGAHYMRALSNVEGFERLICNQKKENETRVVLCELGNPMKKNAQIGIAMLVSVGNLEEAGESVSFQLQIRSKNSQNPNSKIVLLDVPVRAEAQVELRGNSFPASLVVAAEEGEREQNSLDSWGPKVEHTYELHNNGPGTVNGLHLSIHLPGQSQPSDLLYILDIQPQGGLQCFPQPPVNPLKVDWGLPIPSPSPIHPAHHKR
Sequence of Integrin alpha-IIb/beta-3 (P08514 891-1039 limits assumed): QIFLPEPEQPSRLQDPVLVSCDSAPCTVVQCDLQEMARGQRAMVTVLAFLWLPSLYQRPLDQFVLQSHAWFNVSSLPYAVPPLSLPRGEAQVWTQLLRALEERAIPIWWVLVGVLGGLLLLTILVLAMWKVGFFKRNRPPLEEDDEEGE

Take `CC1CCN(C(=O)[C@H](CCCNc2ccc(N)cn2)NS(=O)(=O)c2cccc3c(N(C)C)cccc23)CC1`: the Ki0 in experiment [1] was 360 nM. In experiment [2], `NC(N)=NCCCC[C@H](N)C(=O)NCC(=O)N[C@@H](CC(=O)O)C(=O)N[C@@H](Cc1cc2ccccc2[nH]1)C(=O)O` (HELM PEPTIDE1{[N=C(N)NCCCC[C@H](N)C(=O)[*:2]].G.D.[O=C(O)[C@H](Cc1cc2ccccc2[nH]1)N[*:1]]}$$$$V2.0) returned an IC50 of 1700 nM. For the compound `NC(N)=NCCCCNC(=O)[C@@H]1CCCN1C(=O)[C@H](N)Cc1ccccc1` (HELM PEPTIDE1{[dF].P.[N=C(N)NCCCCN[*:1]]}$$$$V2.0), affinity in experiment [3] was put at a Ki of 180 nM.

Usually IC50 stands for the concentration at which inhibition is half-maximal. Higher therefore signals weaker potency in that assay. As usually defined, the Ki is the dissociation constant of the complex between target and ligand, obtained from inhibition or displacement.

The values above are taken from ChEMBL document CHEMBL1131639, “Structural analysis of thrombin complexed with potent inhibitors incorporating a phenyl group as a peptide mimetic and aminopyridines as guanidine substitutes” (J Med Chem, 1998).
